# Measured values published in article PMC4522690 (Journal of medicinal chemistry, 2015).
# Tests used:
# PR20 [1] = biological target: PR20 (Human immunodeficiency virus type 1, UniProt P03366, D530N/I547V/I584V, form not given); assay: Kinetic assay of PR20 proteolytic activity with fluorogenic substrate; format: biochemical, HIV-1; settings: versus darunavir KL 41 nM
# TFR-PR [2] = biological target: T1, TFR-PR (Human immunodeficiency virus type 1, UniProt P03366); assay: Inhibition of N-terminal autoprocessing of wild-type precursor in E. coli; format: cell-based, HIV-1
# TFR-PR20 [3] = assay: Inhibition of N-terminal autoprocessing of mutant precursor in E. coli; format: cell-based, HIV-1; settings: tests up to 100 μM concentration
# [4] = system: highly darunavir resistant strain of HIV-1; settings: strain selected in the laboratory; cited from earlier work
# [5] = blood–brain barrier penetration; cited from earlier work
# PR20 [6] = assay: Kinetic assay of PR20 proteolytic activity with fluorogenic substrate; format: biochemical, HIV-1; settings: Ki PR20 / Ki wild-type PR
# PR20 [7] = settings: compared with darunavir or wild-type PR; cited from earlier work
# TFR-PR20 [8] = settings: cited from earlier work
# TFR-PR [9] = biological target: T1, TFR-PR; settings: cited from earlier work
SMILES,IC50 (TFR-PR [2]),inhibition of autoprocessing of TFR-PR20 precursor (TFR-PR20 [3]),inhibition of autoprocessing of PR20-containing precursors (in words) (TFR-PR20 [8]),inhibition of autoprocessing of TFR-PR relative to other clinical protease inhibitors (in words) (TFR-PR [9]),further results
CC(C)CN(C[C@@H](O)[C@H](Cc1ccccc1)NC(=O)O[C@H]1CO[C@H]2OCC(F)(F)[C@H]21)S(=O)(=O)c1ccc(N)cc1 [GRL-5010A],1000 to 2000 nM,no significant improvement was observed in the inhibition,–,–,fold lower Ki for PR20 relative to darunavir binding affinity (KL) (PR20 [1]): about 2 fold; antiviral activity against highly darunavir resistant HIV-1 (in words) [4]: moderate antiviral activity; fold higher apparent permeability coefficient (Papp) than darunavir [5]: 6.5 fold
COc1ccc(S(=O)(=O)N(CC(C)C)C[C@@H](O)[C@H](Cc2ccccc2)NC(=O)O[C@H]2CO[C@H]3OC[C@H](OC)[C@H]32)cc1 [GRL-4410A],1000 to 2000 nM,no significant improvement was observed in the inhibition,–,–,fold weaker inhibition (Ki) of PR20 than wild-type PR (PR20 [6]): 1000 fold
COc1ccc(S(=O)(=O)N(C[C@H]2CCC(=O)N2)C[C@@H](O)[C@H](Cc2ccccc2)NC(=O)O[C@@H]2C[C@@H]3CCO[C@@H]3C2)cc1 [GRL-02031A],–,–,neither GRL-02031A nor GRL-0519A inhibits the autoprocessing,–,binding affinity for PR20 (in words) (PR20 [7]): weaker affinity for PR20
COC(=O)N[C@H](C(=O)N[C@@H](Cc1ccccc1)[C@@H](O)CN(Cc1ccc(-c2ccccn2)cc1)NC(=O)[C@@H](NC(=O)OC)C(C)(C)C)C(C)(C)C [atazanavir],–,–,–,inhibited most effectively,–
CC(C)(C)NC(=O)[C@@H]1C[C@@H]2CCCC[C@@H]2CN1C[C@@H](O)[C@H](Cc1ccccc1)NC(=O)[C@H](CC(N)=O)NC(=O)c1ccc2ccccc2n1 [saquinavir],–,–,–,inhibited most effectively,–
CC(C)CN(C[C@@H](O)[C@H](Cc1ccccc1)NC(=O)O[C@H]1CO[C@H]2OCC[C@H]21)S(=O)(=O)c1ccc(N)cc1 [darunavir],–,–,"like darunavir, neither GRL-02031A nor GRL-0519A inhibits the autoprocessing",inhibited most effectively,–
